The source of these data is patent publication US12208106B2, “Methods of vitamin D treatment” (priority 2016, dated 2025).

Data set [1] is described as follows: Solubility of calcifediol monohydrate. Type of data set: physicochemical. From the text: In one embodiment, calcifediol is synthetically manufactured as calcifediol monohydrate. […] Chemically, calcifediol monohydrate is (3β,5Z,7E)-9,10-secocholesta-5,7,10(19)-triene-3,25-diol monohydrate and its structural formula is: […]
Another data set concerns plasma proteins. Put plainly: Plasma protein binding of calcifediol. As to conditions: human, read-out: bound to plasma proteins. The class given is in vitro ADME. The protocol: The pharmacokinetics of […] were assessed in healthy subjects and subjects with CKD Stage 3 or Stage 4. […] Steady-state levels of serum total 25-hydroxyvitamin D were reached after approximately 3 months. Following multiple dose administration of […], the average steady state concentrations of serum total 25-hydroxyvitamin D were 53 ng/mL and 68 ng/mL for doses of 30 mcg and 60 mcg dose group, respectively. With respect to distribution, calcifediol is extensively bound to plasma proteins (>98%). The mean apparent volume of distribution was 8.8 L in healthy subjects following a single oral dose of […], and 30.1 L in subjects with Stage 3 or Stage 4 chronic kidney disease following repeated dosing. With respect to elimination, the mean elimination half-life of calcifediol was approximately 11 days in healthy individuals following a single dose of […], and approximately 25 days in patients with Stage 3 or Stage 4 chronic kidney disease following repeated once daily dosing. With respect to metabolism, production of calcitriol from calcifediol is catalyzed by the 1α-hydroxylase enzyme, CYP27B1, located in the kidney, parathyroid gland, and other tissues. […] Calcitriol suppresses CYP27B1 and upregulates CYP24A1. Excretion of calcifediol occurs primarily through the biliary fecal route. […]

As to `C=C1CC[C@H](O)C/C1=C/C=C1\CCC[C@]2(C)[C@@H]([C@H](C)CCCC(C)(C)O)CC[C@@H]12` [Calcifediol monohydrate, (3β,5Z,7E)-9,10-secocholesta-5,7,10(19)-triene-3,25-diol monohydrate], in data set [1], the “solubility in alcohol and fatty oils” value is recorded as “soluble”; the solubility in water entry is given as “practically insoluble”.
Take `C=C1CC[C@H](O)C/C1=C/C=C1\CCC[C@]2(C)[C@@H]([C@H](C)CCCC(C)(C)O)CC[C@@H]12` [calcifediol, 25-hydroxyvitamin D3]: the fraction unbound with plasma proteins is below 0.02.
